Assays:
Assay in all cases: Post-emergence glasshouse herbicide test, visual phytotoxicity
Type in all cases: in vivo
Settings in all cases: 13 days
[1] = system: Abutilon threophrasti (ABUTH)
Method: (§1) Seeds of Setaria faberi (SETFA), Echinochloa crus-galli (ECHCG), Digitaria sanguinalis (DIGSA), Lolium perenne (LOLPE), Alopecurus myosuroides (ALOMY), Chenopodium album (CHEAL), Ipomoea hederacea (IPOHE), Stellaria media (STEME), Abutilon threophrasti (ABUTH) and Amaranthus retroflexus (AMARE) were sown in standard sterilised soil in pots. After cultivation for 8 days under controlled conditions in a glasshouse (at 24/19° C., day/night; 16 hours light; no humidity control), the plants were sprayed at 500 l/Ha with an aqueous spray solution derived from the formulation of the technical active ingredients in a small amount of acetone and a solvent and emulsifier mixture referred to as IF50 (11.12% Emulsogen EL360 TM+44.44% N-methylpyrrolidone+44.44% Dowanol DPM glycol ether), to create a 50 g/l solution which was then diluted using 0.2% Genapol X080 (CAS Number: 9043-30-5) as diluent to give the desired final dose of test compound.
(§2) Where active ingredients were applied as mixtures, aqueous spray solutions were prepared as above, containing both active ingredients.
(§3) The test plants were then grown under controlled conditions in a glasshouse (at 24/18° C., day/night; 15 hours light; 50% humidity) and watered twice daily. After 13 days, the test was evaluated visually for percentage phytotoxicity to the plants (where 100=total damage to plant; 0=no damage to plant; and NC=not captured) when compared to control untreated plants. Two to four replicates were applied for each treatment in a randomised block test design.
(§4) 22., E=X+Y−(X*Y/100), where • X=average percent phytotoxicity of herbicide A when applied at a certain rate • Y=average percent phytotoxicity using herbicide B when applied at a certain rate • E=the expected effect of the mixture of herbicides A and B as calculated from the Colby formula.

[2] = system: Alopecurus myosuroides (ALOMY)
Method: as §1, §2, §3, §4

[3] = system: Amaranthus retroflexus (AMARE)
Method: as §1, §2, §3, §4

[4] = system: Chenopodium album (CHEAL)
Method: as §1, §2, §3, §4

[5] = system: Digitaria sanguinalis (DIGSA)
Method: as §1, §2, §3, §4

[6] = system: Echinochloa crus-galli (ECHCG)
Method: as §1, §2, §3, §4

[7] = system: Ipomoea hederacea (IPOHE)
Method: as §1, §2, §3, §4

Lolium perenne (LOLPE) = system: Lolium perenne (LOLPE)
Method: as §1, §2, §3, §4

Setaria faberi (SETFA) = system: Setaria faberi (SETFA)
Method: as §1, §2, §3, §4

Stellaria media (STEME) = system: Stellaria media (STEME)
Method: as §1, §2, §3, §4

Q: How did the “percentage phytotoxicity ABUTH” value ([1]; 0.08 g/ha) turn out when `CCOC(=O)COc1ncccc1Oc1cc(-n2c(=O)cc(C(F)(F)F)n(C)c2=O)c(F)cc1Cl` [B-V] was run?
A: 23%

Q: And the “percentage phytotoxicity ABUTH” value ([1]; 0.16 g/ha)?
A: 75%

Q: What about the “percentage phytotoxicity ABUTH” value ([1]; 0.32 g/ha) of the same compound?
A: 85%

Q: What about the “percentage phytotoxicity ABUTH” value ([1]; 0.625 g/ha) of the same compound?
A: 100%

Q: And the “percentage phytotoxicity ABUTH” value ([1]; 1.25 g/ha)?
A: 100%

Q: And the “percentage phytotoxicity ALOMY” value ([2]; 0.08 g/ha)?
A: 0%

Q: What about the “percentage phytotoxicity ALOMY” value ([2]; 0.16 g/ha) of the same compound?
A: 5%

Q: And the “percentage phytotoxicity ALOMY” value ([2]; 0.32 g/ha)?
A: 50%

Q: What about the “percentage phytotoxicity ALOMY” value ([2]; 0.625 g/ha) of the same compound?
A: 55%

Q: What about the “percentage phytotoxicity ALOMY” value ([2]; 1.25 g/ha) of the same compound?
A: 78%

Q: What about the “percentage phytotoxicity AMARE” value ([3]; 0.08 g/ha) of the same compound?
A: 35%

Q: What about the “percentage phytotoxicity AMARE” value ([3]; 0.16 g/ha) of the same compound?
A: 100%

Q: And the “percentage phytotoxicity AMARE” value ([3]; 0.32 g/ha)?
A: 100%

Q: What about the “percentage phytotoxicity AMARE” value ([3]; 0.625 g/ha) of the same compound?
A: 100%

Q: And the “percentage phytotoxicity AMARE” value ([3]; 1.25 g/ha)?
A: 100%

Q: What about the “percentage phytotoxicity CHEAL” value ([4]; 0.08 g/ha) of the same compound?
A: 8%

Q: And the “percentage phytotoxicity CHEAL” value ([4]; 0.16 g/ha)?
A: 63%

Q: What about the “percentage phytotoxicity CHEAL” value ([4]; 0.32 g/ha) of the same compound?
A: 78%

Q: What about the “percentage phytotoxicity CHEAL” value ([4]; 0.625 g/ha) of the same compound?
A: 80%

Q: And the “percentage phytotoxicity CHEAL” value ([4]; 1.25 g/ha)?
A: 95%

Q: And the “percentage phytotoxicity DIGSA” value ([5]; 0.08 g/ha)?
A: 0%

Q: And the “percentage phytotoxicity DIGSA” value ([5]; 0.16 g/ha)?
A: 13%

Q: What about the “percentage phytotoxicity DIGSA” value ([5]; 0.32 g/ha) of the same compound?
A: 40%

Q: What about the “percentage phytotoxicity DIGSA” value ([5]; 0.625 g/ha) of the same compound?
A: 50%

Q: What about the “percentage phytotoxicity DIGSA” value ([5]; 1.25 g/ha) of the same compound?
A: 68%

Q: And the “percentage phytotoxicity ECHCG” value ([6]; 0.08 g/ha)?
A: 0%

Q: What about the “percentage phytotoxicity ECHCG” value ([6]; 0.16 g/ha) of the same compound?
A: 0%

Q: And the “percentage phytotoxicity ECHCG” value ([6]; 0.32 g/ha)?
A: 10%

Q: What about the “percentage phytotoxicity ECHCG” value ([6]; 0.625 g/ha) of the same compound?
A: 8%

Q: And the “percentage phytotoxicity ECHCG” value ([6]; 1.25 g/ha)?
A: 20%

Q: What about the “percentage phytotoxicity IPOHE” value ([7]; 0.08 g/ha) of the same compound?
A: 23%

Q: And the “percentage phytotoxicity IPOHE” value ([7]; 0.16 g/ha)?
A: 50%

Q: What about the “percentage phytotoxicity IPOHE” value ([7]; 0.32 g/ha) of the same compound?
A: 55%

Q: And the “percentage phytotoxicity IPOHE” value ([7]; 0.625 g/ha)?
A: 93%

Q: And the “percentage phytotoxicity IPOHE” value ([7]; 1.25 g/ha)?
A: 88%

Q: And the “percentage phytotoxicity LOLPE” value (Lolium perenne (LOLPE); 0.08 g/ha)?
A: 0%

Q: What about the “percentage phytotoxicity LOLPE” value (Lolium perenne (LOLPE); 0.16 g/ha) of the same compound?
A: 5%

Q: What about the “percentage phytotoxicity LOLPE” value (Lolium perenne (LOLPE); 0.32 g/ha) of the same compound?
A: 38%

Q: What about the “percentage phytotoxicity LOLPE” value (Lolium perenne (LOLPE); 0.625 g/ha) of the same compound?
A: 30%

Q: And the “percentage phytotoxicity LOLPE” value (Lolium perenne (LOLPE); 1.25 g/ha)?
A: 60%

Q: And the “percentage phytotoxicity SETFA” value (Setaria faberi (SETFA); 0.08 g/ha)?
A: 0%

Q: What about the “percentage phytotoxicity SETFA” value (Setaria faberi (SETFA); 0.16 g/ha) of the same compound?
A: 0%

Q: What about the “percentage phytotoxicity SETFA” value (Setaria faberi (SETFA); 0.32 g/ha) of the same compound?
A: 20%

Q: And the “percentage phytotoxicity SETFA” value (Setaria faberi (SETFA); 0.625 g/ha)?
A: 20%

Q: And the “percentage phytotoxicity SETFA” value (Setaria faberi (SETFA); 1.25 g/ha)?
A: 33%

Q: What about the “percentage phytotoxicity STEME” value (Stellaria media (STEME); 0.08 g/ha) of the same compound?
A: 15%

Q: What about the “percentage phytotoxicity STEME” value (Stellaria media (STEME); 0.16 g/ha) of the same compound?
A: 45%

Q: What about the “percentage phytotoxicity STEME” value (Stellaria media (STEME); 0.32 g/ha) of the same compound?
A: 85%

Q: And the “percentage phytotoxicity STEME” value (Stellaria media (STEME); 0.625 g/ha)?
A: 95%

Q: And the “percentage phytotoxicity STEME” value (Stellaria media (STEME); 1.25 g/ha)?
A: 100%

Source: patent US20230284620A1, “MIXTURES OF PYRIDAZINES AS HERBICIDAL COMPOSITIONS” (SYNGENTA CROP PROTECTION AG, priority 2020, published 2023)
